From ChEMBL document CHEMBL1201862, “PubChem BioAssay data set” (2004)
Calls of active or inactive are those of the source.

How the values were obtained:
[1] = target: UDP-galactopyranose mutase (Mycobacterium tuberculosis, UniProt P9WIQ1); test: Inhibitors of Mycobacterium tuberculosis UDP-galactopyranose mutase (UGM) enzyme Measured in Biochemical System Using Plate Reader - 2105-02_Inhibitor_Dose_CherryPick_Activity. [Related pubchem assays (depositor defined):AID504439]
Protein Rev = Protein Rev (Human immunodeficiency virus type 1 group M subtype B (isolate HXB2)(HIV-1), UniProt P04618); test: blockers of HIV Rev/RRE RNA complex – biochemical, fluorescence polarization, HIV-1, dose response (AID 434976); design: species or system Human immunodeficiency virus 1
ORF 73 = ORF 73 (Human herpesvirus 8, UniProt O40947); test: KSHV LANA DNA-binding disruption – biochemical, fluorescence polarization, cherry-picked samples, dose response (AID 504725); design: species or system Human gammaherpesvirus 8;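 also: fluorescence polarization of a labeled DNA duplex reporting LANA DNA binding; potency is for inhibitors that block LANA binding to the DNA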
[2] = target: Female germline-specific tumor suppressor gld-1 (Caenorhabditis elegans, UniProt Q17339); test: blockers of GLD-1/TGE RNA complex formation – biochemical, fluorescence polarization, C. elegans, dose response (AID 2802);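 also: fluorescence polarization of labeled TGE RNA bound by purified gld-1 protein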
Keap1/Nrf2 = Keap1/Nrf2 (Homo sapiens, UniProt Q14145); test: disruptors of Keap1 binding to Nrf2 peptide – biochemical, fluorescence polarization, cherry-picked samples, dose response (AID 588683)
[3] = viability loss of HMLE_sh_eGFP cells – cell-based, luminescence, counter-screen for HMLE_sh_ECad selective toxicity project, dose response (AID 463074); format: functional, Homo sapiens;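 also: HMLE human mammary epithelial cells expressing control shRNA against eGFP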
[4] = Luminescence Cell-Based Dose Retest to Confirm Inhibitors of Cancer Stem Cells. [Related pubchem assays (depositor defined):AID2717, AID2721]; format: functional; settings: Homo sapiens
[5] = target: T1, Delta-type opioid receptor (Homo sapiens, UniProt P41143); test: delta opioid receptor blockers – image-based, SAR follow-up (AID 2357); format: functional
[6] = target: T2, Kappa-type opioid receptor (Homo sapiens, UniProt P41145); test: kappa opioid receptor activation potency – imaging, image-based, SAR follow-up (AID 2359); format: functional
[7] = target: T2, Kappa-type opioid receptor; test: SAR analysis of small molecule agonists of the kappa opioid receptor via a luminescent beta-arrestin assay. [Related pubchem assays (depositor defined):AID1777, AID1786, AID1966, AID2133, AID2136, AID2348, AID2352, AID2357, AID2359, AID2370, AID2420, AID2478, AID2491, AID2492, AID2493, AID2497, AID2498, AID2500, AID449737, AID488822, AID488842]; format: functional
Mu-type opioid receptor [8] = target: T3, Mu-type opioid receptor (Homo sapiens, UniProt P35372); test: mu opioid receptor blockers – image-based, SAR follow-up (AID 2420); format: functional;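 also: compounds added before stimulation of receptor with agonist DAMGO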
[9] = target: T1, Delta-type opioid receptor; test: DOR agonists, SAR follow-up, image-based (AID 2370); format: functional
[10] = target: T2, Kappa-type opioid receptor; test: kappa opioid receptor blockers, image-based, SAR follow-up (AID 2348); format: functional
Mu-type opioid receptor [11] = target: T3, Mu-type opioid receptor; test: mu opioid receptor activators, image-based, SAR follow-up (AID 2352); format: functional
[12] = target: T4, Ubiquitin-conjugating enzyme E2 N (Homo sapiens, UniProt P61088); format: functional
T4 sequence (P61088 whole entry): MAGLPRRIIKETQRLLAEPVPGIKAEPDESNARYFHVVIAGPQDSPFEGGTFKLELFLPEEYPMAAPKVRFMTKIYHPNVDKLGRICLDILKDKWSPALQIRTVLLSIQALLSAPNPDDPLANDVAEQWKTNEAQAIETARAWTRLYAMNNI

Bcl-2-related protein A1 = target: T5, Bcl-2-related protein A1 (Mus musculus, UniProt Q07440); format: functional;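 also: confirmatory dose–response counterscreen on Bfl-1, used to check hits from a UBC13 polyubiquitin inhibitor campaign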
T5 sequence (Q07440 whole entry): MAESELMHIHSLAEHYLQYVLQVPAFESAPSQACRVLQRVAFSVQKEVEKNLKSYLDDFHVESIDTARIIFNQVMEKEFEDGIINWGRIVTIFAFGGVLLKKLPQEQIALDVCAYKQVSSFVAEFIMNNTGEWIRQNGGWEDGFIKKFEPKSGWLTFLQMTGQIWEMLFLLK

[13] = Counterscreen for AddAB inhibitors: absorbance-based bacterial cell-based high throughput dose response assay for inhibitors of bacterial viability. [Related pubchem assays (depositor defined):AID435030, AID449728, AID449731, AID488942, AID488955, AID488956]; format: functional
Exodeoxyribonuclease V = Exodeoxyribonuclease V (Escherichia coli (strain K12), UniProt P04993+P07648+P08394); test: RecBCD inhibition via phage-restricted bacterial growth – absorbance, V66 E. coli, mutant T4 phage, counter-screen for AddAB inhibitor project, dose response (AID 492957); format: functional, cell-based, Escherichia coli str. K-12 substr. MG1655
[14] = target: T4, Ubiquitin-conjugating enzyme E2 N; format: functional; remark: listed apart in the source
INS1 = test: INS-1E survival protection against cytokine death – cell-based, luminescence, retest, dose response (AID 449756); format: functional; settings: Rattus norvegicus;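 also: cell death triggered by IL-1 beta plus TNF-alpha plus IFN-gamma mixture; protective hits raise ATP signal compared with cytokine alone wells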
[15] = target: T6, Alkaline phosphatase, tissue-nonspecific isozyme (Homo sapiens, UniProt P05186); test: inhibition of tissue-nonspecific alkaline phosphatase – biochemical, dose response (AID 488882); format: functional
T6 sequence (P05186 whole entry): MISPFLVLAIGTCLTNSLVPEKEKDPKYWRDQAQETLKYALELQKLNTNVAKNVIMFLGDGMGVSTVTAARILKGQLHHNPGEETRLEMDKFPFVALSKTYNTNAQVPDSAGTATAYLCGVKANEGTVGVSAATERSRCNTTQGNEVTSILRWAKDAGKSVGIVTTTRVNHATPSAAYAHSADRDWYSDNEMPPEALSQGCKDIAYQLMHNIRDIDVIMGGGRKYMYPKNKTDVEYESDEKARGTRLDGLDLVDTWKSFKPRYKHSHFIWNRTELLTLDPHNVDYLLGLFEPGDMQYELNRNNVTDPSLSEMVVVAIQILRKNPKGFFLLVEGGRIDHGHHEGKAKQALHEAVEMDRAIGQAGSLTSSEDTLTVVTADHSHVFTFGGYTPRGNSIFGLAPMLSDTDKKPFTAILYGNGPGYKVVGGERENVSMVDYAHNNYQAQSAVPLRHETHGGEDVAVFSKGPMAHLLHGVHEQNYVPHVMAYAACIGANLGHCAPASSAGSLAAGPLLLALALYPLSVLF

[16] = target: T7, Intestinal-type alkaline phosphatase (Homo sapiens, UniProt P09923); test: Dose Response confirmation of uHTS hits from a small molecule inhibitors of human intestinal alkaline phosphatase via a luminescent assay. [Related pubchem assays (depositor defined):AID2544, AID2574]; format: functional
[17] = target: Intestinal-type alkaline phosphatase (Mus musculus, UniProt P24822); test: PubChem AID 488875; format: functional
[18] = target: T7, Intestinal-type alkaline phosphatase; test: inhibition of human intestinal alkaline phosphatase – biochemical, luminescent, uHTS hits, set 2, dose response (AID 488793); format: functional

T2 sequence (P41145 whole entry): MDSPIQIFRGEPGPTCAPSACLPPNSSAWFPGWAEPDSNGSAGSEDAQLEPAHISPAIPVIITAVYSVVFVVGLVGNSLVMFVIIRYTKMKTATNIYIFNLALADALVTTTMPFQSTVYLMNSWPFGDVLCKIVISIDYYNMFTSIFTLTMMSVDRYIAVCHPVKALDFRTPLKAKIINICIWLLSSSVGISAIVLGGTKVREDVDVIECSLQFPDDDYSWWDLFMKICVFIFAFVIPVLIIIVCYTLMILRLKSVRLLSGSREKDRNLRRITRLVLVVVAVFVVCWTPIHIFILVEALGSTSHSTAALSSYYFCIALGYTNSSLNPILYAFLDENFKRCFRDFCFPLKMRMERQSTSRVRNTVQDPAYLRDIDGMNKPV
T1 sequence (P41143 whole entry): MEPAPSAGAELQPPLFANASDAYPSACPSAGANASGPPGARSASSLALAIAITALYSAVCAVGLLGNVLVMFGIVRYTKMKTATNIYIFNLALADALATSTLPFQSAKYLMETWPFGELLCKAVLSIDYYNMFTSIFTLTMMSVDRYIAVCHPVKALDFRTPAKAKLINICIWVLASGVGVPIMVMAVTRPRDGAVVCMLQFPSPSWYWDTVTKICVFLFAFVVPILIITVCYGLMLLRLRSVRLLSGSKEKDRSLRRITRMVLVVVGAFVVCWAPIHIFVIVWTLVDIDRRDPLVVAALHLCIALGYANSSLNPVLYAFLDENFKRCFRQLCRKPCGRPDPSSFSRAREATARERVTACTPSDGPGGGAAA
T7 sequence (P09923 whole entry): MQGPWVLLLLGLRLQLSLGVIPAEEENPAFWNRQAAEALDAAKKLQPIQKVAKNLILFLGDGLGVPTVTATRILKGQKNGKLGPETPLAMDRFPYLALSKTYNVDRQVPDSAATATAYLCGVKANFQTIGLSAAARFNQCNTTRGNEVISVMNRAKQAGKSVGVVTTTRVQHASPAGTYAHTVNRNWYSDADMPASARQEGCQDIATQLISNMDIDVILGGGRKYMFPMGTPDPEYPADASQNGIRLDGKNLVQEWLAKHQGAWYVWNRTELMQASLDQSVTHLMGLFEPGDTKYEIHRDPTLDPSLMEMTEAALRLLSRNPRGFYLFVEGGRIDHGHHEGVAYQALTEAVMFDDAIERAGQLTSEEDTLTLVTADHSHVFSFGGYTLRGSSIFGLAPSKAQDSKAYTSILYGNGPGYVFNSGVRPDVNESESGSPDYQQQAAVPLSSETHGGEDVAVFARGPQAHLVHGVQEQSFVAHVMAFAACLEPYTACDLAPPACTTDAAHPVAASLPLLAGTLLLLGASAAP
T3 sequence (P35372 whole entry): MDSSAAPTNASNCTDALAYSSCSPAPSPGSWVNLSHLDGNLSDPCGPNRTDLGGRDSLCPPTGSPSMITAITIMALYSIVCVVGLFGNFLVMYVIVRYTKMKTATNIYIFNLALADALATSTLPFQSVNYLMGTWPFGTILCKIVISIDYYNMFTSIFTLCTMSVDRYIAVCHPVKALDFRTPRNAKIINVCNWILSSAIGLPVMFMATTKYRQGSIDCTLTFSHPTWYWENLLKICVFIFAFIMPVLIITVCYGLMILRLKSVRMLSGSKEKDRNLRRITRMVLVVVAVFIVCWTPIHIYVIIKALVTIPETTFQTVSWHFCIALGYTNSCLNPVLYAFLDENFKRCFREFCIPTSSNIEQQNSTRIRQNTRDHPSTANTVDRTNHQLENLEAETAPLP
Exodeoxyribonuclease V, sequence (P04993 whole entry): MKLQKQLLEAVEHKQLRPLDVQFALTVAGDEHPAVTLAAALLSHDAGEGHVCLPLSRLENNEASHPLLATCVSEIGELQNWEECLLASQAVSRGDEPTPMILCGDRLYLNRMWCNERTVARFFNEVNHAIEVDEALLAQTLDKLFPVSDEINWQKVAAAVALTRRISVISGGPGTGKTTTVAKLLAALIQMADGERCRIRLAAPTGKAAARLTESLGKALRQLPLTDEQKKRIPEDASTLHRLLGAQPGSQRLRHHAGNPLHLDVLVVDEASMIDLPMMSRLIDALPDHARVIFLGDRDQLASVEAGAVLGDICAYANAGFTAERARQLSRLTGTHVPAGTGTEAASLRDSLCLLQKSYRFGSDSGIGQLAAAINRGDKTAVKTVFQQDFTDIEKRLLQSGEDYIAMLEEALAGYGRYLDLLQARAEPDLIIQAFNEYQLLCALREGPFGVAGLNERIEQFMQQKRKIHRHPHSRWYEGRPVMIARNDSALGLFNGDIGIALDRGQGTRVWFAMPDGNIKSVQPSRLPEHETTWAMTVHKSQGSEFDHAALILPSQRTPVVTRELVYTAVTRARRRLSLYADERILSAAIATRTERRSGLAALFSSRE
Exodeoxyribonuclease V, sequence (P07648 whole entry): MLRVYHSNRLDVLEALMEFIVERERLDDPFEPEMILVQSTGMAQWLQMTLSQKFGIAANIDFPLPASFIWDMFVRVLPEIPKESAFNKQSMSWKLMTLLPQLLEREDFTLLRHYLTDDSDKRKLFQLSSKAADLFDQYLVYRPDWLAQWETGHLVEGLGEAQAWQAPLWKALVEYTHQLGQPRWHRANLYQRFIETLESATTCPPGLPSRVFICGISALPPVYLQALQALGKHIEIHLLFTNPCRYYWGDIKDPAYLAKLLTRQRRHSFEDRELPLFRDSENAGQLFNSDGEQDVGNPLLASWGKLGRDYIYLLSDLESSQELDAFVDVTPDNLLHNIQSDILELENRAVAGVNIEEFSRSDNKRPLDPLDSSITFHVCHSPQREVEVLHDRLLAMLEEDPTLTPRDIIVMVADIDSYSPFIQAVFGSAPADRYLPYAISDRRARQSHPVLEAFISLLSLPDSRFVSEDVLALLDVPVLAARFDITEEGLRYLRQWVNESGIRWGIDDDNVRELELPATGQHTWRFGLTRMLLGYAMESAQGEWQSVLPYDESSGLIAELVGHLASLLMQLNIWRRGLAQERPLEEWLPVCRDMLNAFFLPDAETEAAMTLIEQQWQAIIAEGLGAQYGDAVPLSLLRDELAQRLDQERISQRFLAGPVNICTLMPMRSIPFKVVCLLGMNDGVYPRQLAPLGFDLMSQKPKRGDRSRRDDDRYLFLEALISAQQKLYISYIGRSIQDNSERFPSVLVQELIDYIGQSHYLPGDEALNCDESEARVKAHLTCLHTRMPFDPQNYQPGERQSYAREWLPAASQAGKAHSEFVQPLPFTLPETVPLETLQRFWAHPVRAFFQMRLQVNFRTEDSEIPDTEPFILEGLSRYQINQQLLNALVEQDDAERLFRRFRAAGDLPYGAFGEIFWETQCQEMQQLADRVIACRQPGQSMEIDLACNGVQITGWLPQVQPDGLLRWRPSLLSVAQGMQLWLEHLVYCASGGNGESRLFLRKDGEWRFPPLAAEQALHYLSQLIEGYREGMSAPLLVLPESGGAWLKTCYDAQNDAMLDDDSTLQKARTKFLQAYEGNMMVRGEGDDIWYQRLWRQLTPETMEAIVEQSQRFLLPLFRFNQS
Exodeoxyribonuclease V, sequence (P08394 whole entry): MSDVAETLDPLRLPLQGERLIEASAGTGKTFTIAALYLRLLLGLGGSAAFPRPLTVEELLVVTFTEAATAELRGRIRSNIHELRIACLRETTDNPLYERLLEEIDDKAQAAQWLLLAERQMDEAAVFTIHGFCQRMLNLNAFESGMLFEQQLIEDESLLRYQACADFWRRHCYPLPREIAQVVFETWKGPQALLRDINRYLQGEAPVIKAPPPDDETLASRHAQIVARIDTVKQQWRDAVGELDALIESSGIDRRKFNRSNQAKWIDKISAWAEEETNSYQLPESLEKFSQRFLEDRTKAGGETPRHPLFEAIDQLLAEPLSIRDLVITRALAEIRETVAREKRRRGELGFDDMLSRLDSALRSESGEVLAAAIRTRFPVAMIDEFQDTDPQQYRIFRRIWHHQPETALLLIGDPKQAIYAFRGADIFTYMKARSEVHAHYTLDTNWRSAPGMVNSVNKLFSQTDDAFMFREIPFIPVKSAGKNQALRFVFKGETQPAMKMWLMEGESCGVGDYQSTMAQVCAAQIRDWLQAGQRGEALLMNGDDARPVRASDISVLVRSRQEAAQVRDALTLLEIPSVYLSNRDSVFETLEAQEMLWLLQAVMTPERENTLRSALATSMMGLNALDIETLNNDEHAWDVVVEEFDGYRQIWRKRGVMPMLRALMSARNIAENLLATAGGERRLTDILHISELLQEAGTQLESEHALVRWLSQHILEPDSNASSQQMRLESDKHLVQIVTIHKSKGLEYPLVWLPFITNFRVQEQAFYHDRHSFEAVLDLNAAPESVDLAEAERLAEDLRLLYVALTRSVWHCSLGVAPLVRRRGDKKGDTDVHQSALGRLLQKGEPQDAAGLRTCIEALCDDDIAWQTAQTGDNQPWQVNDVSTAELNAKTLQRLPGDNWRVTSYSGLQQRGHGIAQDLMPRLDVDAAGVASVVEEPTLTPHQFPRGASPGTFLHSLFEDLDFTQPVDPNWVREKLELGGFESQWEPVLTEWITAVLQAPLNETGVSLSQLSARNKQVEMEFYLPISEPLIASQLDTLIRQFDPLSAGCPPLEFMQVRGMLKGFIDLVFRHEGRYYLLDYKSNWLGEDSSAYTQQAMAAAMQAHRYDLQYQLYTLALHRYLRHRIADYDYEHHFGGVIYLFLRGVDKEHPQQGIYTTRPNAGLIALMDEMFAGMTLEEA
Protein Rev, sequence (P04618 whole entry): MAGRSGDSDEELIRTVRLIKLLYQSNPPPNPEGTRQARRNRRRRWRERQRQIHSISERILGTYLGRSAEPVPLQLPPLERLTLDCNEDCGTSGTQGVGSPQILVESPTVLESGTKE

Nc1ccc2nonc2c1[N+](=O)[O-]
AC50 [1]: 7.95 µM (active)
IC50 (Protein Rev): 0.69 µM (active)
AC50 (ORF 73): 8.03 µM (active)
IC50 [2]: 0.248 µM (active)
AC50 (Keap1/Nrf2): 7.99 µM (active)

COc1ccc(-c2ccc3oc(-c4ccc(OC)cc4)c(C#CC4(O)CCCCC4)c3c2)cc1
AC50 [3]: 29.8 µM (active)
AC50 [4]: 5.32 µM (active)

O=C(c1cnccn1)N(Cc1cccs1)C1(C(=O)NC2CCCCC2)CCCCC1
IC50 [5]: > 32 µM (inactive)
EC50 [6]: 0.141 µM (active)
EC50 [7]: 0.444 µM (active)
IC50 (Mu-type opioid receptor [8]): > 32 µM (inactive)
EC50 [9]: > 32 µM (inactive)
IC50 [10]: > 32 µM (inactive)
EC50 (Mu-type opioid receptor [11]): > 32 µM (inactive)

CCC[C@@H](CN1CCC[C@H]1CN1C(N)=NC[C@@H]1Cc1ccccc1)N1C[C@@H]([C@H](C)CC)N(CCCC2CCCC2)C1=N
IC50 [12]: 8.52 µM (active)
IC50 (Bcl-2-related protein A1): > 20 µM (inactive)
IC50 [13]: 17.5 µM (inactive)
IC50 (Exodeoxyribonuclease V): 15.2 µM (inactive)
IC50 [14]: 10.9 µM (active)
AC50 (INS1): 7.33 µM (active)

O=C(O)c1ccccc1C(=O)Nc1cc(-c2ccccc2)n[nH]1
IC50 [15]: 32.7 µM (active)
IC50 [16]: 10.5 µM (inactive)
EC50 [17]: > 100 µM (inactive)
IC50 [18]: 58.5 µM (active)
